{
  "source": "patent US20120083464A1",
  "about": "“NEUROPROTECTIVE PROPERTIES OF 5'-METHYLTHIOADENOSINE” (priority 2009, published 2012)",
  "key": {"[1]": {"tested_on": "RN22 cells", "assay": "Hydrogen peroxide stress in RN22 cells, ROS levels", "assay_type": "cell-based, rat", "conditions": "hydrogen peroxide 100 μM, different time periods", "procedure": "(§1) RN22 cells were maintained at 37° C. in DMEM medium supplemented with 10% of fetal bovine serum and penicillin/streptomycine. The assays against stress with copper sulphate were conducted using 24-well plates in DMEM medium without serum. After allowing cell adherence for three days, NGF (100 ng/ml) or MTA was added to different concentrations half an hour before the copper sulphate (150 μM). After twenty-four hours, cell viability was quantified by MTT assay and ROS production was quantified by fluorescence. Assays against stress with hydrogen peroxide were conducted in the same way as the foregoing, using 100 μM hydrogen peroxide as a stress-producing agent.\n(§2) We determined the quantity of ROS produced by the cells after stress with and without treatment. 2′,7′- dichlorodihydrofluorescein (DCFH) is generally used to measure oxidative stress in cells. The cells were incubated with DCFH-DA (10 μM) at 37° C. for thirty minutes. After incubation, the cells were washed twice with PBS and lysed by adding 10 mM Tris-HCL buffer containing 0.5% of Tween 20. The homogenates were then centrifuged at 10,000 g for ten minutes to separate the cell residue and […] fluorescence in the supernatant was measured using a fluorometer (excitation wavelength 492-495 nm, emission wavelength 517-527 nm) (Invitrogen)."}, "[2]": {"tested_on": "hippocampal neurons after pilocarpine-induced status epilepticus", "assay": "Pilocarpine model of temporal lobe epilepsy (status epilepticus), hippocampal histology", "assay_type": "in vivo, Sprague-Dawley rats", "conditions": "for quantification of cells in area CA1 at 30 days after SE: preliminary", "excerpt": "We compared two MTA treatment regimens to examine its neuroprotective effect on pilocarpine-induced SE in adult rats. One regimen involved 5 days of MTA treatment beginning beginning 2 days before SE (pre-SE MTA). The other regimen, a more clinically relevant protocol, consisted of MTA treatment for 3 days beginning at the termination of SE (post-SE MTA).\nYoung adult (175-200 g), male Sprage-Dawley rats were divided into four MTA treatment groups, 9-11 rats per group. In group A, rats were subjected to pilocarpine-induced status epilepticus (SE). Following 90 minutes of continuous seizure activity, SE was stopped by a single administration of diazepam (10 mg/kg). The rats were injected either with vehicle or MTA once daily for 3 days. Rats were sacrificed at day 4 after SE, and their brains perfusion fixed, frozen and sectioned for histology. In group B, treatment of rats was the same as Group A except that the rats were sacrificed at day 30 after SE. In group C, rats were treated with MTA once daily for two days. On the third day, rats underwent pilocarpine-induced SE. The rats were continuously treated with MTA once daily for 3 more days; controls received placebo The rats were then anesthetized and sacrificed day 4 after SE. In group D, rats were treated the same way as Group C except that the rats were sacrificed on 30 days after SE.\nThe sections were subjected to cresyl violet (Nissl) staining and NeuN immunostaining to examine cell loss. Timm staining to identify mossy fiber sprouting was performed on the 30-day survival group."}, "[3]": {"tested_on": "isolated optic nerve", "assay": "Simulated ischemia (OGD) in isolated optic nerves, LDH release", "parameters": "species or system Sprague Dawley rats", "conditions": "1 h ischemia with iodoacetate + 2 h reperfusion; MTA 100-300 μM", "procedure": "Ischemic damage was induced by substituting […] and adding 1 mM of the glyocolytic blocker iodoacetate (1 mM) for 1 h followed by 2 h of reperfusion in […] aCSF. Optic nerves during ischemia and reperfusion were incubated with vehicle, for controls, and with MTA or glutamate receptor antagonists, and subsequently processed for LDH release assay. The results are the mean±SEM of at least three different experiments performed in duplicate.\nCell viability in oligodendrocyte cultures was assayed after 24 h of exposure to MTA (1 μM to 3 mM) calcein-AM assays respectively followed by fluorimetry measurements (Synergy-HT). Oligodendrocyte protection from excitotoxicity and optic nerve damage after ischemia (1 hour+2 hours reperfusion) were examined using lactate dehydrogenase release assays in the presence or absence of MTA (100-300 μM for 3 hours)."}, "[4]": {"tested_on": "cerebellar organotypic cultures", "assay": "LPS neuroinflammation model in cerebellar organotypic cultures: demyelination and axonal damage (immunofluorescence, Western blot)", "assay_type": "cell-based, C57/B16 wild type mice", "conditions": "192 μM MTA pre-treatment for half hour, 15 μg/ml LPS, 24 hrs", "excerpt": "Organotypic cultures model of neuroinflammation is based on previous observations in which systemic injections of lipopolysaccharide (LPS) in mice spinal cord induce inflammation, demyelinization and Wallerian degeneration. In mice cerebellar organotypic cultures, LPS induces microglia activation with consequent demyelination and axonal damage. In particular, LPS induces TNF-alpha, IL1-beta release, axonal swelling and end bulbs due to axonal transport block, and a decrease of axonal density. Organotypic cultures represent the best model to represent in vivo mechanisms since they maintain cell-cell interaction and organotypic structure of brain region studied. In this way, this in vitro neuroinflammation model reproduces the microglia activation, demyelinization and axonal damage phenomena observed in MS.\nCerebellar organotypic cultures which were pre-treated for half hour with 192 μM of MTA and 15 μg/ml of LPS have been used to generate neuroinflammation model.\n2. Data analysis: Western blot, immunofluorescence and ELISA analysis were performed using conventional techniques."}, "[5]": {"tested_on": "RN22 cells", "assay": "Copper sulphate stress in RN22 cells, ROS levels", "assay_type": "cell-based, rat", "conditions": "copper sulphate 150 μM, different time periods", "procedure": "as §1, §2"}},
  "note": "Entries after “also recorded” stand apart in the source; their conditions may differ.",
  "data": [
    {"smiles": "CSC[C@H]1O[C@@H](n2cnc3c(N)ncnc32)[C@H](O)[C@@H]1O", "note": "[MTA, 5′-methylthioadenosine]", "values": [
      {"measurement": "ROS production under hydrogen peroxide stress", "setting": "[1]", "value": "capable of reducing ROS production"},
      {"measurement": "hippocampal neuronal loss, qualitative (Nissl stain, NeuN immunohistochemistry)", "setting": "[2]; MTA started before or after SE, early and late timepoints, dentate hilus, CA1, CA3", "value": "qualitatively reduced neuronal loss; also recorded: qualitatively more Nissl-stained cells"},
      {"measurement": "mossy fiber sprouting (Timm stain)", "setting": "[2]; late timepoint, either MTA group", "value": "No qualitative difference"},
      {"measurement": "quantification of cells in area CA1 at 30 days after SE", "setting": "[2]; post-SE MTA group, p=0.057", "value": "trend toward neuroprotection; also recorded: non-significant trend toward increased cell numbers"},
      {"measurement": "hippocampal NeuN immunoreactivity at 30 days after SE (representative example)", "setting": "[2]; post-SE MTA, dentate gyrus", "value": "only mild cell loss"},
      {"measurement": "quantification of cells in area CA1 at 30 days after SE", "setting": "[2]; pre-SE MTA group, p=0.02", "value": "significant neuroprotective effects"},
      {"measurement": "hippocampal NeuN immunoreactivity at 30 days after SE (representative example)", "setting": "[2]; pre-SE MTA, dentate gyrus and pyramidal cell layer", "value": "good preservation of neurons"},
      {"measurement": "OGD/ischemia-induced damage in isolated optic nerve (LDH release)", "setting": "[3]", "value": "similarly protective"},
      {"measurement": "demyelination and axonal damage (MBP/NFL immunofluorescence, CNPase/APP Western blot)", "setting": "[4]", "value": "prevents; also recorded: absents"},
      {"measurement": "ROS production under copper sulphate stress", "setting": "[5]", "value": "reduce ROS production"}
    ]}
  ]
}
